Reference: patent US20130018023A1, “COMPOSITIONS FOR TOPICAL ADMINISTRATION” (SOL-GEL TECHNOLOGIES LTD., priority 2010, published 2013)

Key:
Staph epidermidis [1] = assay: MIC determination, macrodilution method; format: cell-based
Text: (§1) Methicillin-resistant Staphylococcus aureus (ATCC 33592) Coagualse Negative Staphylococcus epidermidis (Clinical Isolate) Vancomycin-Restistant Enterococcus faecali (ATCC 115992) Escherischia coli (ATCC 25922) Candida albicans (ATCC 10231)
(§2) Muller Hinton Broth (MHB) was used in this study for all bacteria: BD Cat #211443, Lot numbers 9097650.
(§3) 1. The test organism, (bacteria or yeast) was obtained from frozen cultures. 2. Two days prior to the experiment, a portion of test bacterium from frozen culture collection was streaked and cultured on a non-selective agar plate (e.g. TSA). Plates were then incubated overnight at 37° C.±1° C. and the culture was examined for purity prior to use. […] 3. The day prior to the experiment, a portion of test organism was inoculated from the above-mentioned plate into MHB and vortexed. Incubate at 37° C.±1° C. for approximately eighteen hours. 4. For Candida albicans (ATCC 10231): The day prior to the experiment a portion of test organism was inoculated from the above-mentioned plate into Yeast/Dextrose Broth and vortexted. Bacterial MIC determination was conducted according to Kirby-Bauer macrodilution method. The bacterial/yeast density was adjusted to approximately 10^7 CFU/m; (Approx OD625 0.1±0.05). […]

VRE [2] = assay: MIC determination, macrodilution method; format: cell-based, Vancomycin-Restistant Enterococcus faecali (ATCC 115992)
Text: as §1, §2, §3

C. albicans (yeast) [3] = assay: MIC determination, macrodilution method; format: cell-based, Candida albicans (ATCC 10231)
Text: as §1
(§4) Muller Hinton Agar (MHA) was used in this study for all bacteria: BD Cat #211438, Lot number 7155220. Yeast Dextrose Broth (Y/D B) was used to test C. albicans Yeast Dextrose Broth contains 10 g/L of yeast extract and 10 g/L of dextrose. Yeast Extract Cat #BD 210933, Lot number 8074851 (Expiration 2010-01-31). Dextrose Cat # BD215530 (Lot Number 6163169). Yeast Dextrose Agar (Y/D A) was used to test C. albicans Yeast Dextrose Agar contains 10 g/L of yeast extract and 10 g/L of dextrose and 17 g/L Agar. Agar Cat # BD 214010 (Lot Number 214010).
1. The test organism, (bacteria or yeast) was obtained from frozen cultures. 2. Two days prior to the experiment, a portion of test bacterium from frozen culture collection was streaked and cultured on a non-selective agar plate (e.g. TSA). Plates were then incubated overnight at 37° C.±1° C. and the culture was examined for purity prior to use. […] 3. The day prior to the experiment, a portion of test organism was inoculated from the above-mentioned plate into MHB and vortexed. Incubate at 37° C.±1° C. for approximately eighteen hours. 4. For Candida albicans (ATCC 10231): The day prior to the experiment a portion of test organism was inoculated from the above-mentioned plate into Yeast/Dextrose Broth and vortexted. Bacterial MIC determination was conducted according to Kirby-Bauer macrodilution method. The bacterial/yeast density was adjusted to approximately 10^7 CFU/m; (Approx OD625 0.1±0.05). Stock solutions of each test article or combination were made by adding each test article to MHB to give an MHB/test article mixture of the following concentrations: Benzoyl Peroxide=6% in MHB and Mupiocin=256 μg/mL in MHB.
For bacterial: Mupirocin=256 μg/mL & BP at 0.0469% in MHB For yeast: Mupirocin=256 μg/mL & BP at 0.0115% in MHB […]

MRSA [4] = assay: MIC determination, macrodilution method; format: cell-based, Methicillin-resistant Staphylococcus aureus (ATCC 33592)
Text: as §1, §2, §3

Staph epidermidis [5] = assay: MBC determination, sub-culturing from MIC tubes; format: cell-based; settings: Staphylococcus epidermidis, mupirocin alone, read-out: Mupirocin MBC & MFC
Text: as §1, §4
(§5) 1. The test organism, (bacteria or yeast) was obtained from frozen cultures. 2. Two days prior to the experiment, a portion of test bacterium from frozen culture collection was streaked and cultured on a non-selective agar plate (e.g. TSA). Plates were then incubated overnight at 37° C.±1° C. and the culture was examined for purity prior to use. […] 3. The day prior to the experiment, a portion of test organism was inoculated from the above-mentioned plate into MHB and vortexed. Incubate at 37° C.±1° C. for approximately eighteen hours. 4. […]

Staph organisms = assay: Cidal activity (MBC) against Staph organisms; format: cell-based, Staphylococcus
Description: Bacterial MBC determination was conducted according to Kirby-Bauer macro-dilution method. […] The tubes were incubated for approximately 24 h at 37° C.±1° C. and then scored for their MBC.

E. Coli [6] = assay: MIC determination, macrodilution method; format: cell-based, Escherischia coli (ATCC 25922); settings: Escherichia coli, MHB, approx. 24 h at 37° C., value as mupirocin concentration, combination starts at BP 0.0469%
Text: as §1, §2, §3

C. albicans (yeast) [7] = assay: MBC & MFC determination, sub-culturing from MIC tubes; format: cell-based, Candida albicans (ATCC 10231); settings: Candida albicans, value as mupirocin concentration
Text: as §1, §4, §5

VRE [8] = assay: MBC determination, sub-culturing from MIC tubes; format: cell-based, Vancomycin-Restistant Enterococcus faecali (ATCC 115992); settings: Enterococcus, value as mupirocin concentration, read-out: Mupirocin MBC & MFC
Text: as §1, §4, §5

MRSA [9] = assay: MBC determination, sub-culturing from MIC tubes; format: cell-based, Methicillin-resistant Staphylococcus aureus (ATCC 33592); settings: Staphylococcus aureus, mupirocin alone, read-out: Mupirocin MBC & MFC
Text: as §1, §4, §5

E. Coli [10] = assay: MBC determination, sub-culturing from MIC tubes; format: cell-based, Escherischia coli (ATCC 25922); settings: Escherichia coli, value as mupirocin concentration, read-out: Mupirocin MBC & MFC
Text: as §1, §4, §5

Row | SMILES | BPO in DMSO MIC (Staph epidermidis [1]; BPO alone dissolved in DMSO) | BPO in DMSO MIC (VRE [2]; BPO alone dissolved in DMSO) | BPO in DMSO MIC (C. albicans (yeast) [3]; C. albicans, BPO alone dissolved in DMSO) | BPO in DMSO MIC (MRSA [4]; BPO alone dissolved in DMSO) | MBC (Staph epidermidis [5]) [µg/mL] | Cidal activity against Staph organisms (in words) (Staph organisms) | MIC (E. Coli [6]) [µg/mL] | MIC (Staph epidermidis [1]; Staphylococcus epidermidis, MHB, approx. 24 h at 37° C., value as mupirocin concentration, combination starts at BP 0.0469%) [µg/mL] | MIC (VRE [2]; Enterococcus, MHB, approx. 24 h at 37° C., value as mupirocin concentration, combination starts at BP 0.0469%) [µg/mL] | MBC (C. albicans (yeast) [7]) [µg/mL] | MBC (VRE [8]) [µg/mL] | MBC (MRSA [9]) [µg/mL] | MBC (E. Coli [10]) [µg/mL] | MIC (C. albicans (yeast) [3]; Candida albicans, C. albicans, approx. 24 h at 37° C., value as mupirocin concentration, combination starts at BP 0.0115%) [µg/mL] | Efficacy against the yeast C. albicans (in words) (C. albicans (yeast) [3]; at the concentrations tested) | MIC (MRSA [4]; Staphylococcus aureus, MHB, approx. 24 h at 37° C., value as mupirocin concentration, combination starts at BP 0.0469%) [µg/mL]
1 | O=C(OOC(=O)c1ccccc1)c1ccccc1 [BPO, Benzoyl peroxide] | 0.1875% (0.78%) | 0.1875% (0.78%) | 0.046% (0.19%) | 0.1875% (0.78%) |  |  |  |  |  |  |  |  |  |  |  | 
2 | C/C(=C\C(=O)OCCCCCCCCC(=O)O)C[C@@H]1OC[C@H](C[C@@H]2O[C@H]2[C@@H](C)[C@H](C)O)[C@@H](O)[C@H]1O [Mupirocin] |  |  |  |  | 32 | Cidal activity | 64 | 1 | 64 | > 256 | > 256 | 32 | > 256 | > 256 | ineffective | 1
